Values joined by “and” are separate entries in the source; they are usually repeats but may differ in a detail not shown here. Equal entries are not always repeated.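 Assay format: 96-well plates, 48-hour exposure. At the GI50, growth is halved. TGI: concentration producing complete growth inhibition.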
Tests used:
Assay in all cases: NCI tumour cell line growth inhibition, 48 h
MDA-N = test system: MDA-N
HOP-18 NSCLC = test system: HOP-18 NSCLC
RXF-631 renal = test system: RXF-631 renal
DMS 114 small cell lung = test system: DMS 114 small cell lung
DMS 273 small cell lung = test system: DMS 273 small cell lung
SNB-78 CNS = test system: SNB-78 CNS
DLD-1 colon = test system: DLD-1 colon
KM20L2 colon = test system: KM20L2 colon
M19-MEL melanoma = test system: M19-MEL melanoma
SN12K1 renal = test system: SN12K1 renal

| SMILES | TGI (MDA-N) [µM] | TGI (HOP-18 NSCLC) | TGI (DMS 114 small cell lung) | TGI (DMS 273 small cell lung) | TGI (SNB-78 CNS) | TGI (DLD-1 colon) | TGI (KM20L2 colon) | TGI (M19-MEL melanoma) | also measured |
| --- | --- | --- | --- | --- | --- | --- | --- | --- | --- |
| O=[N+]([O-])c1cccc(-c2csc(NNC3=NC/C(=C/c4ccc5c(c4)OCO5)S3)n2)c1 | > 100 |  |  |  |  |  |  |  |  |
| Cc1cc(N(CCC#N)CCC#N)ccc1N=Nc1ccc(S(N)(=O)=O)cc1 |  | > 100 µM | > 100 µM | > 100 µM | > 100 µM | > 100 µM |  |  | TGI (RXF-631 renal): > 100 µM |
| CCCCCCCCCCCC(=O)OCCOCCOCCOCCOCCOCc1ccccc1 |  | > 100 µM | > 100 µM | > 100 µM | > 100 µM | > 100 µM | > 100 µM | > 100 µM |  |
| Cc1c(C(=O)CC(=O)C(=O)Nc2ccccc2C(F)(F)F)[n+](=O)c2ccccc2n1[O-] |  | 37 µM | 25.2 µM | 59.9 µM | > 100 µM |  | 92.3 µM |  |  |
| CCCCCCCCCCCCCC(=O)OC(/C=C/C(C)C)C(O)C(O)C(OC)C(=O)NC1CCCCN(C)C1=O (stereo unspecified) |  | 9.84 µM and > 49 µM | 5.44 µM and > 49 µM | 4.98 µM and > 49 µM | 14.8 µM | 6.56 µM and > 49 µM | 7.64 µM and > 49 µM | 7.5 µM and > 49 µM | GI50 (HOP-18 NSCLC): 6.44 µM; GI50 (RXF-631 renal): > 49 µM; TGI (RXF-631 renal): 7.52 µM and > 49 µM; GI50 (KM20L2 colon): > 49 µM; GI50 (DMS 114 small cell lung): > 49 µM; GI50 (M19-MEL melanoma): > 49 µM; GI50 (DMS 273 small cell lung): > 49 µM; GI50 (DLD-1 colon): > 49 µM |
| CC1(C)C(=O)/C=C\C(=O)C(C)(C)C2=CC=C(O2)C(C)(C)C(=O)/C=C\C(=O)C(C)(C)C2=CC=C1O2 |  | > 100 µM |  | > 100 µM | > 100 µM |  | > 100 µM | > 100 µM |  |
| CCOC(=O)Cn1c(C(F)(F)F)nc2nc(Cl)c(Cl)nc21 | > 100 |  |  |  |  |  |  |  |  |
| Cc1cc(NS(=O)(=O)c2ccc(Nc3c4ccccc4nc4c(C(=O)N5CCN(CCOS(C)(=O)=O)CC5)cccc34)cc2)no1 |  |  | > 100 µM | > 100 µM | > 100 µM | > 100 µM | > 100 µM | > 100 µM |  |
| CCOC(=O)/C=C/CC(C)(C)CCOC(C)=O | > 10 |  |  |  |  |  |  |  |  |
| NC(=O)NO.O.O.O.O.O.O.O.O.O.O.O.[Ge].[Ge].[Ge].[Ge].[Ge].[O]=[Ge].[O]=[Ge].[O]=[Ge].[O]=[Ge].[O]=[Ge][OH] |  | > 100 µM |  | > 100 µM | > 100 µM | > 100 µM | > 100 µM | > 100 µM |  |
| Cc1nc2c(ccc3ncccc32)[nH]1 |  | > 100 µM | > 100 µM | > 100 µM |  | > 100 µM | > 100 µM | > 100 µM |  |
| Cc1c(C(=O)C/C(=N/NC(=O)c2ccccc2O)C(=O)Nc2ccccc2C(C)C)[n+](=O)c2ccccc2n1[O-] |  | > 100 µM | 60.8 µM | > 100 µM | > 100 µM | > 100 µM | > 100 µM | > 100 µM |  |
| COC(=O)CC[N+]1=CCC(c2ccccc2)(c2ccccc2)O1 | > 100 |  |  |  |  |  |  |  |  |
| OCC1=CC(NC2CC(CO)C(O)C(O)C2O)C(O)C(O)C1O (stereo unspecified) |  | > 100 µM | > 100 µM | > 100 µM |  | > 100 µM |  | > 100 µM |  |
| CCC[CH2][Sn]([CH2]CCC)([S]c1cccc2cccnc12)[S]c1cccc2cccnc12 |  | 0.605 µM | 0.319 µM | 0.432 µM | 0.825 µM | 0.382 µM | 0.474 µM | 0.587 µM | GI50 (HOP-18 NSCLC): 0.264 µM; GI50 (KM20L2 colon): 0.215 µM; GI50 (DMS 114 small cell lung): 0.129 µM; GI50 (M19-MEL melanoma): 0.216 µM; GI50 (DMS 273 small cell lung): 0.177 µM; GI50 (SNB-78 CNS): 0.203 µM; GI50 (DLD-1 colon): 0.172 µM |
| CCOC(=O)CCC1(C(=O)OCC)CCCCC1=O (stereo unspecified) |  | > 100 µM | > 100 µM | > 100 µM | > 100 µM | > 100 µM | > 100 µM | > 100 µM |  |
| Cc1ccc(S(=O)(=O)OC[C@@H]2CO2)cc1 |  | > 100 µM |  | > 100 µM | > 100 µM | > 100 µM | > 100 µM | > 100 µM | TGI (RXF-631 renal): > 100 µM |
| COc1cc2cc(OC)c3cc4c(cc3c2c(OC)c1OC)OCO4 |  | > 100 µM | > 100 µM | 35.6 µM | > 100 µM | 51.5 µM | 53.5 µM | 48.8 µM | TGI (RXF-631 renal): > 100 µM |
| O=C(O)CCNCCCNCCC(=O)O |  | > 100 µM | > 100 µM | > 100 µM |  | > 100 µM | > 100 µM | > 100 µM | TGI (RXF-631 renal): > 100 µM |
| COc1cccc(C2c3cc4c(cc3OC(C)(N3CCCC3)C2C)OCO4)c1O (stereo unspecified) | 5.81 |  |  |  |  |  |  |  |  |
| c1ccc(-c2nc(-c3ccccc3SSc3ccccc3-c3nc(-c4ccccc4)nn3-c3ccccc3)n(-c3ccccc3)n2)cc1 | > 100 |  |  |  |  |  |  |  |  |
| CCOC(=O)C(C)(C)Oc1ccc2c(-c3ccccc3)cc(=O)oc2c1 |  |  | 64.1 µM | > 100 µM |  | > 100 µM | > 100 µM | 98 µM |  |
| NC(N)=NS(=O)(=O)c1ccc(Nc2c3ccccc3nc3c(C(=O)NCCO)cccc23)cc1 |  |  |  |  |  |  |  |  | GI50 (MDA-N): 17.8 µM |

| SMILES | TGI (MDA-N) [µM] | TGI (HOP-18 NSCLC) | TGI (DMS 114 small cell lung) | TGI (DMS 273 small cell lung) | TGI (SNB-78 CNS) | TGI (DLD-1 colon) | TGI (KM20L2 colon) | TGI (M19-MEL melanoma) | also measured |
| --- | --- | --- | --- | --- | --- | --- | --- | --- | --- |
| COc1ccc(CC2c3cc4c(cc3CCN2C)OCO4)c(C=O)c1OC (stereo unspecified) | > 100 |  |  |  |  |  |  |  |  |
| CCn1c(C)nn2c(=O)c3ccccc3nc2c1=O |  | > 100 µM | > 100 µM | > 100 µM | > 100 µM | > 100 µM | > 100 µM | > 100 µM |  |
| C1=C2/CC[C@H](Sc3ccccc3)C2C2(CCCCC/1)OCCO2 (stereo partly specified) |  | > 100 µM |  | > 100 µM | > 100 µM | > 100 µM | 37.1 µM | 33.5 µM |  |
| CC(=O)[CH-]C(=O)c1ccccc1.CC(=O)[CH-]C(=O)c1ccccc1.CN(C)c1ccc([O-])cc1.CN(C)c1ccc([O-])cc1.Cl.[Ti+4] |  | > 31.6 µM |  |  |  | > 31.6 µM | > 31.6 µM | 26.4 µM | GI50 (HOP-18 NSCLC): 23.1 µM; GI50 (KM20L2 colon): 20.4 µM; GI50 (M19-MEL melanoma): 15.1 µM; GI50 (DLD-1 colon): 15.6 µM |
| O=C(Nc1ccccc1)c1c(O)[nH]c(=S)[nH]c1=O | 125 | 118 µM and 184 µM | 69 µM | 78.9 µM | 124 µM and > 250 µM | 90 µM and > 250 µM | 125 µM and > 250 µM | 118 µM | GI50 (HOP-18 NSCLC): 17.3 µM; GI50 (KM20L2 colon): 87.2 µM; GI50 (SNB-78 CNS): 97.7 µM; GI50 (SN12K1 renal): 25.2 µM; TGI (SN12K1 renal): 51.8 µM and 75.1 µM; GI50 (DLD-1 colon): 109 µM |
| Cc1ccc(Cl)c2c(N=Nc3ccccc3[N+](=O)[O-])c(O)[nH]c12 | > 100 |  |  |  |  |  |  |  |  |
| CC1(C(=O)O)CCC[C@@]2(C)C1CC[C@@]1(C)c3cocc3CCC21 (stereo partly specified) |  | > 100 µM | > 100 µM | > 100 µM | > 100 µM | > 100 µM | > 100 µM | > 100 µM | TGI (RXF-631 renal): > 100 µM |
| Cc1ccsc1C(=S)Nc1ccc(Cl)c(/C=N/OC(C)(C)C)c1 | > 100 |  |  |  |  |  |  |  |  |
| Clc1ccccc1C(SCc1ccccc1)SCc1ccccc1 | > 100 |  |  |  |  |  |  |  |  |
| COC(CCC[N+](C)(C)C)CC[N+](C)(C)C (stereo unspecified) | > 100 |  |  |  |  |  |  |  |  |
| CNC(=S)OCCC(C)CCCC(C)C (stereo unspecified) |  | 31.3 µM |  | 30.7 µM | 34.5 µM | 28.9 µM | 30 µM | 34.9 µM |  |
| CC(C)=CCC\C(C)=C/C=C/C(C)=C\C=C\C(C)=C/C=C/C=C(C)\C=C\C=C(C)/C=C/C=C(/C)CCC=C(C)C | > 100 |  |  |  |  |  |  |  |  |
| O=C(CCNC12CC3CC(CC(C3)C1)C2)c1ccccc1 | 30.5 |  |  |  |  |  |  |  |  |
| COC(=O)C1(C(C)C)CCc2c(OC)ccc(OC)c2C1=O (stereo unspecified) |  | > 100 µM | > 100 µM |  | > 100 µM | > 100 µM | > 100 µM | > 100 µM |  |
| Nc1ccccc1S(=O)(=O)N(CC(=O)O)c1ccccc1 |  | > 100 µM |  | > 100 µM |  | > 100 µM | > 100 µM | > 100 µM | TGI (RXF-631 renal): > 100 µM |
| O=C(CCc1nc(=S)[nH][nH]1)Nc1ccc(Cl)c(Cl)c1 |  | > 100 µM | > 100 µM | > 100 µM | > 100 µM | > 100 µM | 31.6 µM | > 100 µM | TGI (RXF-631 renal): > 100 µM |
| COC(=O)c1ccccc1NC(=O)C(=O)Cc1nc2c3c(ccc2[nH]c1=O)C(=O)c1ccccc1C3=O |  | > 100 µM | > 100 µM | 58.1 µM | > 100 µM | > 100 µM | > 100 µM | 23.9 µM | TGI (RXF-631 renal): > 100 µM |
| Fc1ccc(NC(=S)SCc2ccc3c(c2)OCO3)cc1F | 34.7 |  |  |  |  |  |  |  |  |
| O=C(Nc1nc2ccc([N+](=O)[O-])cc2s1)C(=O)C(C1OC(=O)c2ccccc21)[N+](=O)[O-] (stereo unspecified) |  |  |  |  | > 100 µM | > 100 µM | > 100 µM | > 100 µM | TGI (RXF-631 renal): > 100 µM |
| O=C1/C(=C/c2ccc(O)c(O)c2)CCC/C1=C\c1ccc(O)c(O)c1 | 14.6 | 10.4 µM |  | 7.2 µM | 8.19 µM | 7.22 µM | 23.8 µM | 12.3 µM |  |
| NC1=NCCC1(c1ccccc1)c1ccccn1 (stereo unspecified) |  | > 100 µM | > 100 µM | > 100 µM | > 100 µM |  | > 100 µM | > 100 µM |  |
| CN(C)N=Nc1ccc(C(N)=O)cc1 |  | > 100 µM | > 100 µM | > 100 µM | > 100 µM | > 100 µM | > 100 µM | > 100 µM |  |
| O=C(O)CCC(NC(=O)c1ccc(Nc2nc3ccccc3nc2-c2cccs2)cc1)C(=O)O (stereo unspecified) |  | > 100 µM | > 100 µM | > 100 µM | > 100 µM | > 100 µM | > 100 µM | > 100 µM | TGI (RXF-631 renal): > 100 µM |

Reference: PubChem BioAssay (NCI)
